Here are results for 1 compound from PMC10947579, “Structure‐Based Demystification of Radical Catalysis by a Coenzyme B12 Dependent Enzyme—Crystallographic Study of Glutamate Mutase with Cofactor Homologues” (Angewandte Chemie (Weinheim an Der Bergstrasse, Germany), 2022).

The target in this test is T1, glutamate mutase (GM) (Clostridium cochlearium, UniProt P80077+P80078).
T1 construct: gene glmE; hetero-tetramer (two epsilon, two sigma subunits), reconstituted with cobalamin
T1 sequence (P80077 1-483): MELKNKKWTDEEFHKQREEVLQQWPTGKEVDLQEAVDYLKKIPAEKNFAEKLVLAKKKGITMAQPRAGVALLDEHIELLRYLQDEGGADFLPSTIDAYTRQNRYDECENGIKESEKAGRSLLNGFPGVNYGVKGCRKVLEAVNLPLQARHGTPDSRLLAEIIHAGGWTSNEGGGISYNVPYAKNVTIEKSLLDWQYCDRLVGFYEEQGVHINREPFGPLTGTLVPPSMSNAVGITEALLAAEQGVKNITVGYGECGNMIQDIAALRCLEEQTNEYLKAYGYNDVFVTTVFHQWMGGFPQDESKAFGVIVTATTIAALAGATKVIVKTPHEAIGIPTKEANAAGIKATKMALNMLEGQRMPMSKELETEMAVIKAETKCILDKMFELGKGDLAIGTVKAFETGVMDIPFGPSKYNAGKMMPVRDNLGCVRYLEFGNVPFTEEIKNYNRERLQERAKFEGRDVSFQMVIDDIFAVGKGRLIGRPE
T1 sequence (P80078 1-137): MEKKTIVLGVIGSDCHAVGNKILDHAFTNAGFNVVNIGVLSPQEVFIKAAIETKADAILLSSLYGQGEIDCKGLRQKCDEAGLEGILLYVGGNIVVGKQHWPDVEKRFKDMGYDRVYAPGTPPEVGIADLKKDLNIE
Put plainly: X-ray crystal structure, […] Å. Particulars: with AdoMeCbl (also bound in the AdoEtCbl complex 6H9F); pseudo-substrate in substrate site of epsilon subunit (arginine claw). The format is binding.

SMILES strings stand for the structures.

As for `O=C(O)[C@@H](O)[C@H](O)C(=O)O` [(S,S)‐tartrate], the “X-ray crystal structure, 1.8 Å” value was “strong polar binding interactions with the carboxylate groups of an (S,S)‐tartrate ion”.
